Results taken from patent US6906205B2, “Spiro and dispiro 1,2,4-trioxolane antimalarials” (Medicines for Malaria Venture MMV, priority 2002, dated 2005).
Values after ≈ are worked out from the molar mass of the structure shown.

Key:
[1] = system: ANKA strain of P. berghei; assay: single dose STI in vivo screen in infected mice; design: species or system Plasmodium berghei; settings: for Activity (%) po / Activity (%) sc / Activity (%) SSVpo: percent reduction in parasitemia day 3 post-infection, mice; for Activity (%) po / Survival (days) po: single 10 mg/kg po in 3% ethanol and 7% Tween 80; for Activity (%) sc / Survival (days) sc: single 10 mg/kg sc in 3% ethanol and 7% Tween 80; for Activity (%) SSVpo: single po dose in standard suspending vehicle (SSV); for Survival (days) po / Survival (days) sc / Survival (days) SSVpo: untreated control 5.6 ± 0.3; for Survival (days) SSVpo: single po dose in SSV
How it was run: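 Groups of 3-5 Moro SPF or NMRI mice infected with the ANKA strain of P. berghei received a single dose of trioxolane on day one post-infection. The compound was given in 3% ethanol and 7% Tween 80 or in SSV (0.5% w/v CMC, 0.5% v/v benzyl alcohol, 0.4% v/v Tween 80, 0.9% w/v sodium chloride in water). Antimalarial activity was scored as percent reduction in parasitemia on day three and as survival time versus untreated controls. Survival to day 30 counted as cure.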

[2] = system: P. falciparum K1 strain (Thailand resistant to chloroquine); assay: semiautomated microdilution assay, [3H]-hypoxanthine incorporation, K1 strain; format: cell-based, Plasmodium falciparum; settings: K1 strain, 72 h incubation
How it was run: (§1)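 Logit regression analysis was used to estimate IC50 values. Parasites were intraerythrocytic forms from asynchronous stock cultures, and compounds were tested by semiautomated microdilution.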

[3] = system: P. falciparum NF54 strain (sensitive to standard antimalarials); assay: semiautomated microdilution assay, [3H]-hypoxanthine incorporation, NF54 strain; format: cell-based, Plasmodium falciparum; settings: NF54 strain, 72 h incubation
How it was run: as §1

SMILES	Activity (%) po [1]	Activity (%) sc [1]	Activity (%) SSVpo [1]	Survival (days) po [1]	Survival (days) sc [1]	Survival (days) SSVpo [1]	IC50 (ng/ml) K1 [2]	IC50 (ng/ml) NF54 [3]	Activity (%) po ([1]; 10 mg/kg)	Activity (%) sc ([1]; 10 mg/kg)	Survival (days) po ([1]; 10 mg/kg)	Survival (days) sc ([1]; 10 mg/kg)
CC(C)(C)NC(=O)N1CCC2(CC1)OOC1(O2)C2CC3CC(C2)CC1C3 (stereo not shown) [OZ143]	48%	99.85%	44%	6.7 days	9.7 days	6.7 days	0.98 ng/mL (≈ 0.00269 µM)	1.8 ng/mL (≈ 0.00494 µM)				
S=C(Nc1ccccc1)N1CCC2(CC1)OOC1(O2)C2CC3CC(C2)CC1C3 (stereo not shown) [OZ144]	99.45%	99.94%	92%	7.3 days	16.7 days	7.3 days	1.4 ng/mL (≈ 0.0035 µM)	2.1 ng/mL (≈ 0.00524 µM)				
O=C(OC1CCC2(CC1)OOC1(O2)C2CC3CC(C2)CC1C3)n1ccnc1 (stereo not shown) [OZ147]	85%	99.89%	71%	8.0 days	19.7 days	8.0 days	1.1 ng/mL (≈ 0.00294 µM)	1.8 ng/mL (≈ 0.00481 µM)				
O=C1OC2(CCC3(CC2)OOC2(O3)C3CC4CC(C3)CC2C4)c2ccccc21 (stereo not shown) [OZ149]	64%	87%	3%	7.7 days	14.3 days	6.0 days	8.0 ng/mL (≈ 0.0209 µM)	8.8 ng/mL (≈ 0.023 µM)				
O=C(NCCO)[C@H]1CC[C@]2(CC1)OOC1(O2)C2CC3CC(C2)CC1C3 (stereo partly shown) [OZ155]	53%	73%	53%	6.3 days	8.3 days	7.0 days	12 ng/mL (≈ 0.0341 µM)	> 10 ng/mL				
C(CNC1CCC2(CC1)OOC1(O2)C2CC3CC(C2)CC1C3)CN1CCOCC1 (stereo not shown) [OZ161]	59%	99.96%	46%	7.0 days	12.7 days	6.7 days	0.40 ng/mL (≈ 0.000984 µM)	0.50 ng/mL (≈ 0.00123 µM)				
O=C(O)c1ccc([C@H]2CC[C@]3(CC2)OOC2(O3)C3CC4CC(C3)CC2C4)cc1 (stereo partly shown) [OZ165]	18%	9%	3%	6.3 days	5.7 days	6.0 days	39 ng/mL (≈ 0.101 µM)	> 10 ng/mL				
CCOC(=O)c1ccc(OC[C@H]2CC[C@]3(CC2)OOC2(O3)C3CC4CC(C3)CC2C4)cc1 (stereo partly shown) [OZ166]	11%	4%	0%	6.7 days	5.7 days	6.3 days	28 ng/mL (≈ 0.0633 µM)	> 10 ng/mL				
O=C1c2ccccc2C(=O)N1C[C@H]1CC[C@@]2(CC1)OOC1(O2)C2CC3CC(C2)CC1C3 (stereo partly shown) [OZ167]	0%	97%	6%	6.0 days	7.3 days	6.0 days	6.7 ng/mL (≈ 0.0158 µM)	> 10 ng/mL				
CC1(C)CC(NC2CCC3(CC2)OOC2(O3)C3CC4CC(C3)CC2C4)CC(C)(C)N1 (stereo not shown) [OZ171]	98%	99.94%	85%	9.0 days	9.7 days	7.0 days	1.3 ng/mL (≈ 0.00311 µM)	1.4 ng/mL (≈ 0.00334 µM)				
N=C(N)NN=C1CCC2(CC1)OOC1(O2)C2CC3CC(C2)CC1C3 (stereo not shown) [OZ172]	68%	100%	82%	8.0 days	10.3 days	10.3 days	3.5 ng/mL (≈ 0.0105 µM)	5.0 ng/mL (≈ 0.015 µM)				
COCC(=O)N(Cc1ccccc1)C1CCC2(CC1)OOC1(O2)C2CC3CC(C2)CC1C3 (stereo not shown) [OZ173]	15%	80%	0%	7.0 days	9.7 days	6.7 days	58 ng/mL (≈ 0.131 µM)	32 ng/mL (≈ 0.0725 µM)				
COCC(=O)N(C1CCCCC1)C1CCC2(CC1)OOC1(O2)C2CC3CC(C2)CC1C3 (stereo not shown) [OZ174]	0%	90%	15%	6.7 days	10.3 days	7.3 days	27 ng/mL (≈ 0.0623 µM)	34 ng/mL (≈ 0.0784 µM)				
O=C(O)c1ccc(OC[C@H]2CC[C@]3(CC2)OOC2(O3)C3CC4CC(C3)CC2C4)cc1 (stereo partly shown) [OZ176]	11%	24%	18%	7.0 days	7.0 days	7.7 days	25 ng/mL (≈ 0.0603 µM)	35 ng/mL (≈ 0.0844 µM)				
CS(=O)(=O)c1ccc([C@H]2CC[C@]3(CC2)OOC2(O3)C3CC4CC(C3)CC2C4)cc1 (stereo partly shown) [OZ178]	32%	31%	23%	7.3 days	10.0 days	7.3 days	21 ng/mL (≈ 0.0502 µM)	27 ng/mL (≈ 0.0645 µM)				
CC1(C)COC(c2ccc([C@H]3CC[C@]4(CC3)OOC3(O4)C4CC5CC(C4)CC3C5)cc2)=N1 (stereo partly shown) [OZ180]			97%			12.7 days	3.7 ng/mL (≈ 0.00846 µM)	2.8 ng/mL (≈ 0.0064 µM)	99.91%	65%	13.7 days	10.3 days
O=C(OCCn1ccnc1)C1CCC2(CC1)OOC1(O2)C2CC3CC(C2)CC1C3 (stereo not shown) [OZ182]	91%	95%	96%	8.0 days	7.7 days	7.3 days	4.5 ng/mL (≈ 0.0112 µM)	5.5 ng/mL (≈ 0.0137 µM)				
O=C(NO)c1ccc([C@H]2CC[C@]3(CC2)OOC2(O3)C3CC4CC(C3)CC2C4)cc1 (stereo partly shown) [OZ183]	65%	81%	19%	6.0 days	8.3 days	6.0 days	0.80 ng/mL (≈ 0.002 µM)	2.1 ng/mL (≈ 0.00526 µM)				
C1CC1CNC1CCC2(CC1)OOC1(O2)C2CC3CC(C2)CC1C3 (stereo not shown) [OZ184]	54%	97%	59%	6.7 days	8.7 days	7.0 days	1.0 ng/mL (≈ 0.003 µM)	1.4 ng/mL (≈ 0.0042 µM)				
C1C2CC3CC1CC(C2)C31OOC2(CCC(NC3CC3)CC2)O1 (stereo not shown) [OZ185]	86%	99.96%	56%	7.7 days	10.7 days	6.7 days	1.1 ng/mL (≈ 0.00344 µM)	1.4 ng/mL (≈ 0.00438 µM)				
COCC(=O)N[C@H]1CC[C@]2(CC1)OOC1(O2)C2CC3CC(C2)CC1C3 (stereo partly shown) [OZ186]	87%	67%	96%	8.0 days	8.0 days	9.0 days	>10/>10 ng/ml	>10/>10 ng/ml				
CN(C)C(=O)N[C@H]1CC[C@]2(CC1)OOC1(O2)C2CC3CC(C2)CC1C3 (stereo partly shown) [OZ187]	77%	77%	94%	7.7 days	7.0 days	10.0 days	4.0 ng/mL (≈ 0.0114 µM)	6.8 ng/mL (≈ 0.0194 µM)				
CN(C)S(=O)(=O)N1CCC2(CC1)OOC1(O2)C2CC3CC(C2)CC1C3 (stereo not shown) [OZ190]	98%	2%	78%	8.7 days	5.7 days	7.7 days	0.16 ng/mL (≈ 0.00043 µM)	1.0 ng/mL (≈ 0.00268 µM)				
